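Tested at 5 concentrations; 48 h exposure; 96-well plates; endpoints linearly interpolated, else capped at highest concentration. Definition used: TGI = concentration required for complete inhibition of growth.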
Assays:
Experiment in all cases: growth of human tumour cells (NCI), 48 h
[1] = tested on: 786-0 renal
[2] = tested on: A498 renal
[3] = tested on: A549 NSCLC
[4] = tested on: ACHN renal
[5] = tested on: CAKI-1 renal
[6] = tested on: CCRF-CEM leukemia
[7] = tested on: COLO 205 colon
[8] = tested on: DLD-1 colon
[9] = tested on: DMS 273 small cell lung
[10] = tested on: EKVX NSCLC
[11] = tested on: HCC-2998 colon
[12] = tested on: HCT-15 colon
[13] = tested on: HL-60(TB) leukemia
[14] = tested on: HOP-18 NSCLC
[15] = tested on: HOP-92 NSCLC
[16] = tested on: HT29 colon
[17] = tested on: IGROV1 ovarian
[18] = tested on: K-562 leukemia
[19] = tested on: KM12 colon
[20] = tested on: KM20L2 colon
[21] = tested on: LOX IMVI melanoma
[22] = tested on: LXFL 529 NSCLC
[23] = tested on: M14 melanoma
[24] = tested on: M19-MEL melanoma
[25] = tested on: MALME-3M melanoma
[26] = tested on: MOLT-4 leukemia
[27] = tested on: NCI-H23 lung
[28] = tested on: NCI-H460 lung
[29] = tested on: NCI-H522 lung
[30] = tested on: OVCAR-3 ovarian
[31] = tested on: OVCAR-4 ovarian
[32] = tested on: OVCAR-5 ovarian
[33] = tested on: OVCAR-8 ovarian
[34] = tested on: RPMI-8226 leukemia
[35] = tested on: RXF 393 renal
[36] = tested on: SF-268 CNS
[37] = tested on: SF-295 CNS
[38] = tested on: SF-539 CNS
[39] = tested on: SK-MEL-2 melanoma
[40] = tested on: SK-MEL-28 melanoma
[41] = tested on: SK-MEL-5 melanoma
[42] = tested on: SK-OV-3 ovarian
[43] = tested on: SN12C renal
[44] = tested on: SNB-19 CNS
[45] = tested on: SNB-75 CNS
[46] = tested on: SW-620 colon
[47] = tested on: TK-10 renal
[48] = tested on: U251 CNS
[49] = tested on: UACC-257 melanoma
[50] = tested on: UACC-62 melanoma
[51] = tested on: UO-31 renal
[52] = tested on: XF 498 CNS
[53] = tested on: BT-549 breast
[54] = tested on: DMS 114 small cell lung
[55] = tested on: DU-145 prostate
[56] = tested on: HCT-116 colon
[57] = tested on: HOP-62 NSCLC
[58] = tested on: HS 578T breast
[59] = tested on: MCF7 breast
[60] = tested on: MDA-MB-231 breast
[61] = tested on: MDA-MB-435
[62] = tested on: MDA-N
[63] = tested on: NCI-H226 lung
[64] = tested on: NCI/ADR-RES ovarian
[65] = tested on: PC-3 prostate
[66] = tested on: SNB-78 CNS
[67] = tested on: SR leukemia
[68] = tested on: T-47D breast

C[C@H](NS(=O)(=O)c1ccc(NC(=O)c2ccccc2)cc1)C(=O)O
TGI [1]: > 100 µM | TGI [2]: > 100 µM | TGI [3]: > 100 µM | TGI [4]: > 100 µM | TGI [5]: > 100 µM | TGI [6]: > 100 µM | TGI [7]: > 100 µM | TGI [8]: > 100 µM | TGI [9]: > 100 µM | TGI [10]: > 100 µM | TGI [11]: > 100 µM | TGI [12]: > 100 µM | TGI [13]: > 100 µM | TGI [14]: > 100 µM | TGI [15]: > 100 µM | TGI [16]: > 100 µM | TGI [17]: > 100 µM | TGI [18]: > 100 µM | TGI [19]: > 100 µM | TGI [20]: > 100 µM | TGI [21]: > 100 µM | TGI [22]: > 100 µM | TGI [23]: > 100 µM | TGI [24]: > 100 µM | TGI [25]: > 100 µM | TGI [26]: > 100 µM | TGI [27]: > 100 µM | TGI [28]: > 100 µM | TGI [29]: > 100 µM | TGI [30]: > 100 µM | TGI [31]: > 100 µM | TGI [32]: > 100 µM | TGI [33]: > 100 µM | TGI [34]: > 100 µM | TGI [35]: > 100 µM | TGI [36]: > 100 µM | TGI [37]: > 100 µM | TGI [38]: > 100 µM | TGI [39]: > 100 µM | TGI [40]: > 100 µM | TGI [41]: > 100 µM | TGI [42]: > 100 µM | TGI [43]: > 100 µM | TGI [44]: > 100 µM | TGI [45]: > 100 µM | TGI [46]: > 100 µM | TGI [47]: > 100 µM | TGI [48]: > 100 µM | TGI [49]: > 100 µM | TGI [50]: > 100 µM | TGI [51]: > 100 µM | TGI [52]: > 100 µM

O=c1c2ccccc2sc2nc(CCl)nn12
TGI [1]: 34.1 µM | TGI [2]: 8.42 µM | TGI [3]: 93 µM | TGI [4]: 21.6 µM | TGI [53]: > 91.6 µM | TGI [5]: 22.3 µM | TGI [6]: > 100 µM | TGI [7]: 30.2 µM | TGI [8]: 21.3 µM | TGI [54]: 48.6 µM | TGI [9]: 22.2 µM | TGI [55]: 21.2 µM | TGI [10]: 29.1 µM | TGI [11]: 31.4 µM | TGI [56]: 16.3 µM | TGI [12]: 18.7 µM | TGI [13]: 44.3 µM | TGI [57]: > 100 µM | TGI [15]: 14.8 µM | TGI [58]: 38.1 µM | TGI [16]: 66 µM | TGI [17]: 49.5 µM | TGI [18]: 28.9 µM | TGI [19]: > 100 µM | TGI [20]: 38 µM | TGI [21]: > 100 µM | TGI [22]: 62.5 µM | TGI [23]: 60.3 µM | TGI [24]: > 62.8 µM | TGI [25]: 49.4 µM | TGI [59]: 36.3 µM | TGI [60]: 23.4 µM | TGI [61]: 29.6 µM | TGI [62]: 17.3 µM | TGI [26]: > 100 µM | TGI [63]: > 100 µM | TGI [27]: 28.5 µM | TGI [28]: 16.5 µM | TGI [29]: 67.8 µM | TGI [64]: > 100 µM | TGI [30]: > 100 µM | TGI [31]: > 100 µM | TGI [32]: > 100 µM | TGI [33]: > 100 µM | TGI [65]: 10.7 µM | TGI [34]: > 100 µM | TGI [35]: 24.5 µM | TGI [36]: 60.6 µM | TGI [37]: > 82.9 µM | TGI [38]: > 80.4 µM | TGI [39]: > 100 µM | TGI [40]: 28.3 µM | TGI [41]: > 100 µM | TGI [42]: 37.5 µM | TGI [43]: 29.4 µM | TGI [44]: > 100 µM | TGI [45]: 55.2 µM | TGI [66]: > 100 µM | TGI [67]: 37.7 µM | TGI [46]: 45.6 µM | TGI [68]: 19.9 µM | TGI [47]: 25.4 µM | TGI [48]: > 100 µM | TGI [49]: 32.9 µM | TGI [50]: 17 µM | TGI [51]: 22.8 µM | TGI [52]: 1.82 µM
